# Laboratory results reported in patent publication US20070032529A1, “Pyrazole compounds and their use as antidiabetes agents” (Japan Tobacco Inc., priority 2005, published 2007).
# Assays:
# [1] = tested on: db/db mice; assay: Measuring blood plasma glucose concentration in db/db mice (hypoglycemic effect); format: in vivo; design: key: ++: compounds exhibiting statistically significant hypoglycemic effect at a dose of 10 mg/kg or less; +: compounds exhibiting not significant but obvious hypoglycemic effect at a dose of 10 mg/kg; conditions: db/db mice fasted 4 h, oral administration, plasma glucose 1 and 3 hours after administration, dose 10 mg/kg or less, Dunnett test vs solvent
# Procedure: 2. Exemplary Test (2) Method for Measuring Blood Plasma Glucose Concentration
# Using db/db mice representing an obesity type of diabetic model were used to examine the effect of compound (1) of the present invention on glucose concentrations in plasma. Plasma glucose concentrations of the db/db mice (9-18 weeks old) were measured, and the mice were divided into groups each of 5 or 8 mice such that there would be no difference in the average value of plasma glucose concentrations. After fasting for four hours, the example compound or the solvent (0.5% methylcellulose) was administered orally to the db/db mice, and plasma glucose concentrations were measured 1 and 3 hours after administration. The analysis of the hypoglycemic effect of the example compound was performed through a statistical test at every hour between the group receiving the solvent and the groups of example compound (Dunnett test).
# [2] = molecular target: T1, recombinant human liver glycogen phosphorylase (Homo sapiens, UniProt P06737); assay: Measuring liver glycogen phosphorylase activity (forward reaction system, NADPH absorbance at 340 nm); format: biochemical; conditions: enzyme inhibitory activity with respect to liver glycogen phosphorylase; class symbols
# T1 construct: made in house; host or cells: Sf9 insect cells (crude homogenate, diluted, used as the enzyme solution)
# T1 sequence (P06737 1-847): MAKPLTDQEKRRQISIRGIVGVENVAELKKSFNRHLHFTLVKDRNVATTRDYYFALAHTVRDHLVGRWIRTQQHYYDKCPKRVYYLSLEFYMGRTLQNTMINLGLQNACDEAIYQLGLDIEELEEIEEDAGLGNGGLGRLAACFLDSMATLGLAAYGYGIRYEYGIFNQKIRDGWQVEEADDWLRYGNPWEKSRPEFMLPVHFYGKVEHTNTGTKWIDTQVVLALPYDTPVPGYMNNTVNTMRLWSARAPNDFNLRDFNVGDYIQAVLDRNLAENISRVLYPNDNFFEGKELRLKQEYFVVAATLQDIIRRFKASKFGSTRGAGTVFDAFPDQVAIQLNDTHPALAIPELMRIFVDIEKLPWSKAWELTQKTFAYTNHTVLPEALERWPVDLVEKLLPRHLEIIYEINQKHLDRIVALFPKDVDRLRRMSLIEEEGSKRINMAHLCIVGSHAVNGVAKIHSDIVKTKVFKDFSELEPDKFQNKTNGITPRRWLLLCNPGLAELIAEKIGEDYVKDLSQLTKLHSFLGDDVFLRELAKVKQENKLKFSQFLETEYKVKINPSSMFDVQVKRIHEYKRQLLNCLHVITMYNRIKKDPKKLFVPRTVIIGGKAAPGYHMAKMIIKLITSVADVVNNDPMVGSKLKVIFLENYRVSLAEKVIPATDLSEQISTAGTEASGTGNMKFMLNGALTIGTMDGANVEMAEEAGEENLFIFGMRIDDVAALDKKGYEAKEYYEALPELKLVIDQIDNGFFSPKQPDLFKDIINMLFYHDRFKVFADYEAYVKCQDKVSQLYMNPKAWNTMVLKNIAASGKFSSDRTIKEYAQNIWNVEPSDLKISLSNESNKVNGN
# In short: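 Sf9 homogenate expressing the enzyme, in pH 6.8 BES/EDTA, with glycogen and phosphate substrate plus glucose, coupled via phosphoglucomutase/G6PDH to NADPH formation. A340 change over 75 min at room temperature, blank-corrected; IC50 linearly interpolated between the two concentrations bracketing 50% inhibition versus 1% DMSO control.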
SMILES,vivo (hypoglycemic effect in db/db mice) [1],IC50 [2] [nM]
O=C(NCc1cccc(F)c1F)c1cc(NC(=O)c2cc(F)c(F)cc2Cl)[nH]n1 [Example 1-18],+,< 100
O=C(NCc1ccc(F)cc1F)c1cc(NC(=O)c2cc(F)c(F)cc2Cl)[nH]n1 [Example 1-19],+,< 100
O=C(NCc1c(F)cccc1F)c1cc(NC(=O)c2cc(F)c(F)cc2Cl)[nH]n1 [Example 1-21],+,< 100
CC(C)Oc1ncccc1CNC(=O)c1cc(NC(=O)c2cc(F)c(F)cc2Cl)[nH]n1 [Example 1-24],+,< 100
O=C(NCc1cccnc1Oc1ccccc1)c1cc(NC(=O)c2cc(F)c(F)cc2Cl)[nH]n1 [Example 1-25],+,< 100
O=C(NCc1ncc(F)cc1F)c1cc(NC(=O)c2cc(F)c(F)cc2Cl)[nH]n1 [Example 1-26],+,< 100
CC(C)Oc1ccc(CNC(=O)c2cc(NC(=O)c3cc(F)c(F)cc3Cl)[nH]n2)cn1 [Example 1-31],+,< 100
CCOc1ccc(CNC(=O)c2cc(NC(=O)c3cc(F)c(F)cc3Cl)[nH]n2)cn1 [Example 1-37],+,< 100
O=C(NCc1cscn1)c1cc(NC(=O)c2cc(F)c(F)cc2Cl)[nH]n1 [Example 1-38],+,< 100
O=C(NCc1ccc(OCC(F)(F)F)nc1)c1cc(NC(=O)c2cc(F)c(F)cc2Cl)[nH]n1 [Example 1-39],+,< 100
Cc1cccc(C)c1CNC(=O)c1cc(NC(=O)c2cc(F)c(F)cc2Cl)[nH]n1 [Example 1-40],+,< 100
O=C(NCc1csc(-c2cccnc2)n1)c1cc(NC(=O)c2cc(F)c(F)cc2Cl)[nH]n1 [Example 1-41],+,< 100
O=C(NCc1nc2ccccc2[nH]1)c1cc(NC(=O)c2cc(F)c(F)cc2Cl)[nH]n1 [Example 1-42],+,< 100
Cc1noc(C)c1CNC(=O)c1cc(NC(=O)c2cc(F)c(F)cc2Cl)[nH]n1 [Example 1-46],++,< 100
Cl.Cn1c(CNC(=O)c2cc(NC(=O)c3cc(F)c(F)cc3Cl)[nH]n2)nc2ccccc21 [Example 1-50],+,< 100
O=C(NCc1nc2ccccc2s1)c1cc(NC(=O)c2cc(F)c(F)cc2Cl)[nH]n1 [Example 1-52],+,< 100
Cc1ccc(CNC(=O)c2cc(NC(=O)c3cc(F)c(F)cc3Cl)[nH]n2)c(Cl)n1 [Example 1-56],+,< 100
COc1ccnc(CNC(=O)c2cc(NC(=O)c3cc(F)c(F)cc3Cl)[nH]n2)c1OC [Example 1-59],++,< 100
Cc1nc(N2CCOCC2)sc1CNC(=O)c1cc(NC(=O)c2cc(F)c(F)cc2Cl)[nH]n1 [Example 1-63],+,< 100
COc1ccccc1CNC(=O)c1cc(NC(=O)c2cc(F)c(F)cc2Cl)[nH]n1 [Example 1-66],+,< 100
COc1cccc(CNC(=O)c2cc(NC(=O)c3cc(F)c(F)cc3Cl)[nH]n2)c1 [Example 1-67],+,< 100
COc1ccc(CNC(=O)c2cc(NC(=O)c3cc(F)c(F)cc3Cl)[nH]n2)cc1 [Example 1-68],+,< 100
Cc1ccc(CNC(=O)c2cc(NC(=O)c3cc(F)c(F)cc3Cl)[nH]n2)cc1 [Example 1-69],+,< 100

SMILES,vivo (hypoglycemic effect in db/db mice) [1],IC50 [2] [nM]
O=C(NCc1ccc(F)cc1)c1cc(NC(=O)c2cc(F)c(F)cc2Cl)[nH]n1 [Example 1-70],++,< 100
O=C(NCc1ccc(Cl)cc1)c1cc(NC(=O)c2cc(F)c(F)cc2Cl)[nH]n1 [Example 1-71],+,< 100
COC(=O)c1ccc(CNC(=O)c2cc(NC(=O)c3cc(F)c(F)cc3Cl)[nH]n2)cc1 [Example 1-72],+,< 100
O=C(O)c1ccc(CNC(=O)c2cc(NC(=O)c3cc(F)c(F)cc3Cl)[nH]n2)cc1 [Example 1-73],+,< 100
CN(C(=O)c1cc(NC(=O)c2cc(F)c(F)cc2Cl)[nH]n1)C1CCCCC1 [Example 1-78],+,< 100
CCN(C(=O)c1cc(NC(=O)c2cc(F)c(F)cc2Cl)[nH]n1)C1CCCCC1 [Example 1-80],+,< 100
C=CCN(C(=O)c1cc(NC(=O)c2cc(F)c(F)cc2Cl)[nH]n1)C1CCCCC1 [Example 1-81],+,< 100
O=C(Nc1cc(C(=O)N(Cc2ccccn2)C2CCCCC2)n[nH]1)c1cc(F)c(F)cc1Cl [Example 1-82],+,< 100
Cl.O=C(NCc1ccc2c(c1)OCO2)c1cc(NC(=O)c2cc(F)c(F)cc2Cl)[nH]n1 [Example 1-84],++,< 100
CCCCN(CC)C(=O)c1cc(NC(=O)c2cc(F)c(F)cc2Cl)[nH]n1 [Example 1-87],+,< 100
CCCN(C(=O)c1cc(NC(=O)c2cc(F)c(F)cc2Cl)[nH]n1)C1CCCCC1 [Example 1-88],+,< 100
COCCN(C(=O)c1cc(NC(=O)c2cc(F)c(F)cc2Cl)[nH]n1)C1CCCCC1 [Example 1-90],+,< 100
O=C(Nc1cc(C(=O)N(Cc2cccnc2)C2CCCCC2)n[nH]1)c1cc(F)c(F)cc1Cl [Example 1-91],+,< 100
CCCN(CCOC)C(=O)c1cc(NC(=O)c2cc(F)c(F)cc2Cl)[nH]n1 [Example 1-95],+,< 100
CCCCN(C(=O)c1cc(NC(=O)c2cc(F)c(F)cc2Cl)[nH]n1)C1CCOCC1 [Example 1-96],+,< 100
COCCN(C(=O)c1cc(NC(=O)c2cc(F)c(F)cc2Cl)[nH]n1)C1CCCC1 [Example 1-98],+,< 100
COCCCN(C(=O)c1cc(NC(=O)c2cc(F)c(F)cc2Cl)[nH]n1)C1CCCCC1 [Example 1-99],+,< 100
CCOCCN(C(=O)c1cc(NC(=O)c2cc(F)c(F)cc2Cl)[nH]n1)C1CCCCC1 [Example 1-100],+,< 100
CCCCN(Cc1cccnc1)C(=O)c1cc(NC(=O)c2cc(F)c(F)cc2Cl)[nH]n1 [Example 1-107],++,< 100
CCCCN(C(=O)c1cc(NC(=O)c2cc(F)c(F)cc2Cl)[nH]n1)C1CCN(C(=O)C(=O)O)CC1 [Example 1-113],++,< 100
CCCN(Cc1ccc(OC)nc1)C(=O)c1cc(NC(=O)c2cc(F)c(F)cc2Cl)[nH]n1 [Example 1-116],++,< 100
CCCN(Cc1cccnc1)C(=O)c1cc(NC(=O)c2cc(F)c(F)cc2Cl)[nH]n1 [Example 1-117],+,< 100
CCCN(C(=O)c1cc(NC(=O)c2cc(F)c(F)cc2Cl)[nH]n1)C1CCN(C(=O)C(=O)O)CC1 [Example 1-123],+,< 100
